Results from PubChem BioAssay (NCI).
“And” between values parts separate entries of the source, which are not always exact repeats. Equal values may be shown once.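 Protocol summary: plate cells (96-well), add compound at 5 concentrations, incubate 48 h, interpolate endpoints linearly. GI50 = concentration required for 50% inhibition of growth. The concentration for full growth arrest is given as TGI.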

Experiments:
Assay in all cases: NCI tumour cell line growth inhibition, 48 h
XF 498 CNS = test system: XF 498 CNS
SN12K1 renal = test system: SN12K1 renal
P388 leukemia = test system: P388 leukemia

O=C1N(Cl)C(=O)C(c2ccc(Cl)cc2)(c2ccc(Cl)cc2)N1Cl
TGI (XF 498 CNS): > 100 µM

S=C1NCCN1
TGI (XF 498 CNS): > 100 µM

C=C1C(=O)[C@@]23CC[C@H]4[C@@](C)(CCC[C@@]4(C)C(=O)OC)[C@@H]2CC[C@]1(O)C3
TGI (XF 498 CNS): 3.17 µM and 3.15 µM
GI50 (SN12K1 renal): 1.67 µM
TGI (SN12K1 renal): 3.15 µM and 2.82 µM
TGI (P388 leukemia): 0.424 µM

CCCCCCNC(=O)C(C)C1CCC2(C)C=CC(=O)C(C)=C2C1O (configuration not stated)
TGI (XF 498 CNS): > 100 µM
TGI (SN12K1 renal): > 100 µM
TGI (P388 leukemia): > 100 µM

N/C(=N\N=C/c1ccc(O)c(O)c1O)NO
TGI (XF 498 CNS): > 100 µM
TGI (SN12K1 renal): 34.7 µM
TGI (P388 leukemia): 29.4 µM
